From EP0863156A1, “Peptides useful as somatostatin antagonists” (American Cyanamid Company, priority 1997, dated 1998)
Square brackets hold non-standard residues; d marks the D form. Peptide text beside a SMILES is read from it.

Tests used:
[1] = test system: serum growth hormone (GH) levels; experiment: In vivo serum growth hormone levels in anaesthetized rats (radioimmunoassay); design: species or system Male Sprague-Dawley rats; conditions: for SGH: i.v., BIM 23014C 10 µg at 60 min
Protocol: (§1) Evaluation in anaesthetized rats. Male Sprague-Dawley rats are anaesthetized with Sagatal and fitted so as to allow efficient intravenous treatment with control and test compounds as well as frequent blood sampling. Blood samples are tested for growth hormone (GH) levels by radioimmunoassay. Thirty minutes after the initiation of blood sampling, rats are given 5 µg, 25 µg or 50 µg of peptide 1.
(§2) Peptide 1 is tested in combination with growth hormone releasing factor (GRF), to investigate whether said peptide may be mimicking the action of GRF. Anaesthetized rats are given GRF (1 µg) alone and in combination with peptide 1 (50 µg). […]

SSTR2 = SSTR2 (Rattus norvegicus, UniProt P30680); experiment: cAMP accumulation in forskolin-stimulated GH4C1/SSTR2 cells (SPA radioimmunoassay); format: cell-based; design: expressed in transfected cells; host or cells: GH4C1 rat pituitary tumor cells
Protocol: This is the basis of a common assay for SRIF agonists and antagonists, whereby SRIF agonists reduce artificially stimulated cAMP levels, and SRIF antagonists reverse the effect of SRIF. […] This increases the response to SRIF and provides a greater dynamic range for the measurement of SRIF antagonist activity.
Stimulation of cells. GH4C1/SSTR2 cells, grown in DMEM with 10% bovine serum, are released from a tissue culture dish by incubation for several minutes at 37° C with PBS containing 0.5 mM EDTA. Cells are washed in induction buffer (PBS containing 100 µM IBMX (an inhibitor of cAMP breakdown) and 2 mM CaCl2) at room temperature, and resuspended at 2 x 10^6/mL in induction buffer. Into each well of a 96-well tray are added 50 µL of a 2 X concentration of stimulants in induction buffer. […] To initiate stimulation of the cells, 50 µL (100,000) cells are added to each well, mixed by shaking 10 seconds on a plate shaker and placed at 37° C for 15 minutes. Stimulation is arrested and cells are lysed by adding 15 µL 0.33 N HCI to each well and incubating the plate for 30 minutes at 37° C. Samples are neutralized by addition of 15 µL 0.25 N NaOH/50 mM Hepes pH 7.4. Baseline cAMP levels are determined in samples with no added forskolin or SRIF, and each treatment is performed in triplicate.
cAMP assay. To measure accumulated cAMP in the samples, a radioimmunoassay is employed. The scintillation proximity assay (SPA, Amersham, Arlington Heights, IL) allows the rapid measurement of ^125I cAMP bound to a specific antibody without separating bound radioligand from free radioligand. Each of the following reagents (15 µL) are added per well in a 96-well tray: supernatants from the cell stimulation; ^125I cAMP; SPA beads conjugated to monkey anti-rabbit IgG antibodies; and rabbit anti-cAMP antibodies. For the standard curve, known amounts of cAMP (0.2 - 12.8 pmol) are added in place of cell supernatants. The 96-well tray is sealed, shaken at room temperature overnight and measured for bound radioligand in a MicroBeta liquid scintillation counter (Wallac, Gaithersburg. MD).
The intrinsic activity of an SRIF antagonist is the percent reversal of the SSTR2 activation by SRIF or MK678, wherein 0% is defined by cAMP levels in samples treated with forskolin plus SRIF or MK678 and 100% is the cAMP level measured after treatment with forskolin alone. Therefore, increased intrinsic activity of a test compound indicates increased antagonist activity of said test compound.
An inverse agonist is a compound that is not only a pure antagonist (i.e. lacking agonist activity), but also blocks the constitutive activity of an unoccupied receptor. One indication of inverse agonist activity is the ability of a SRIF antagonist to increase cAMP levels in the absence of added SRIF.

Male Sprague-Dawley rats = experiment: Serum growth hormone levels in anaesthetized rats after intravenous treatment (radioimmunoassay); format: in vivo; conditions: for SGH: GRF 1 µg + Peptide 1 50 µg at 30 min
Protocol: as §1, §2

SRIF receptors = biological target: T1, SRIF receptors (Rattus norvegicus, UniProt P30680); experiment: Yeast bioassay for SRIF antagonist activity (zone of growth inhibition of LY364 cells growing in response to SRIF); format: cell-based; conditions: 10 µL of 5 mg/mL on filter disk, S-14 10 nM
T1 construct: expressed in transfected cells; host or cells: Saccharomyces cerevisiae strain LY364
Protocol: Agar plates containing LY364 cells that are growing in the presence of added SRIF are the basis for a sensitive SRIF antagonist assay, whereby zones of growth inhibition result from the addition of SRIF antagonists to the surface of the agar plate (see L.A. Price, et al., Molecular and Cellular Biology, 15, 6188-6195, 1995, incorporated herein by reference).
In this assay, LY364 cells are grown overnight in 2 mL of synthetic complete(SC) medium (3.4 g/L YNB without amino acids and ammonium sulfate, 10 g/L ammonium sulfate and 1.4 g/L CSM-ura-trp) with glucose (2%) and without uracil and tryptophan. These cells are washed and cultured for 4 to 8 hours in 5 mL of SC medium with lactate (3%) and without uracil and tryptophan, and finally grown overnight in 5 mL of SC medium with galactose (2%) and without uracil and tryptophan. Molten (50° C) SC agar medium with galactose (2%) and without uracil, tryptophan and histidine is adjusted to pH 6.8 with KOH, mixed with 2 x 10^4 cells/mL and SRIF (S-14, 10 nM) and poured into square (20 x 20 cm) petri dishes. Sterile filter disks are placed on the surface of the agar, and saturated with 10 µL of water or DMSO containing 5 mg/mL test peptides. After three days, the plates display a uniform cloudy background of […] cells growing in response to the added SRIF. […] This zone is quantified by measuring its diameter (mm), which varies according to the potency of the SRIF antagonist. Those peptides or mixtures of peptides displaying the largest zones of inhibition are further characterized.
Values are compared among samples in the same experiment, as the degree of yeast growth varies somewhat from assay to assay. For the first five sample types, in which progressively less complex mixtures of peptides are found, this assay is the primary determining factor in choosing which samples form the basis of subsequent syntheses.
Plates are read after 3 days. Samples shown in Table I in bold type are chosen for further synthesis. In Table I, all amino acids are D-amino acids and dashes represent undefined amino acid residues.

[2] = test system: spontaneous growth hormone secretory pulses; experiment: Spontaneous growth hormone secretory pulses in conscious rats under intravenous infusion; format: in vivo, Male Sprague-Dawley rats; conditions: Figure 5
Protocol: Evaluation in conscious rats. Male Sprague-Dawley rats are fitted so as to allow efficient intravenous treatment with control and test compounds as well as frequent blood sampling. Blood samples are tested for growth hormone (GH) levels by radioimmunoassay. Blood samples are taken over a 12 hour period. At a 6 hour time point, peptide 1 is infused intravenously (300 µg/hr) into conscious, freely moving male rats for two hours. Control animals receive saline infusions over the same time period. […] It is known, SRIF is required for growth hormone pulsatility and that an SRIF antagonist abolishes said pulsatility (see Tannenbaum, G.S. and Ling, N., Endocrinology, 115, 1952-1957, 1984, incorporated herein by reference).

Sequence of SSTR2 (P30680 whole entry): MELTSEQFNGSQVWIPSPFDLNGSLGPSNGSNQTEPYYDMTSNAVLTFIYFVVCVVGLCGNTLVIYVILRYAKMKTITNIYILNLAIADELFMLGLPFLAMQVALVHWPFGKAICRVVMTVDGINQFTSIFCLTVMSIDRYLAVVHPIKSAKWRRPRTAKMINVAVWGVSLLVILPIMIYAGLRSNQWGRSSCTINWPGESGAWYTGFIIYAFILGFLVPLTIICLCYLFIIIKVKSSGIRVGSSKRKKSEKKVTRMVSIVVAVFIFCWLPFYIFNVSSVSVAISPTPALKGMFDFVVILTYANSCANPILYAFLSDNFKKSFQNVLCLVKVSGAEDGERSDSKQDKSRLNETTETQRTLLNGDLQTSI
T1 sequence (P30680 whole entry): as above

CC[C@@H](C)[C@@H](NC(=O)[C@@H](Cc1ccccc1)NC(=O)[C@@H](Cc1c[nH]cn1)NC(C)=O)C(=O)N[C@H](CCCNC(=N)N)C(=O)N[C@H](Cc1c[nH]c2ccccc12)C(=O)N[C@H](Cc1ccccc1)C(N)=O [Peptide 1, Ac-D-His-D-Phe-D-Ile-D-Arg-D-Trp-D-Phe-NH2] (Ac-[dH][dF][dI][dR][dW][dF]-NH2)
effect upon GH levels ([1]; 5 µg, 25 µg or 50 µg of peptide 1 thirty minutes after initiation of blood sampling): dose related effect upon GH levels
serum GH levels after first dose ([1]; highest dose (50 µg) of peptide 1 at 30 min): significant increase in serum GH levels
SGH ([1]; Peptide 1 5 µg at 30 and 90 min, time 0 min (before dosing)): 17.0 ng/mL
SGH ([1]; Peptide 1 5 µg at 30 and 90 min, time 15 min (before dosing)): 13.6 ng/mL
SGH ([1]; Peptide 1 5 µg at 30 and 90 min, time 30 min (time of first dose)): 12.2 ng/mL
SGH ([1]; Peptide 1 5 µg at 30 and 90 min, time 35 min): 17.5 ng/mL
SGH ([1]; Peptide 1 5 µg at 30 and 90 min, time 40 min): 14.9 ng/mL
SGH ([1]; Peptide 1 5 µg at 30 and 90 min, time 45 min): 15.7 ng/mL
SGH ([1]; Peptide 1 5 µg at 30 and 90 min, time 60 min (time of BIM dose)): 11.4 ng/mL
SGH ([1]; Peptide 1 5 µg at 30 and 90 min, time 75 min): 7.0 ng/mL
SGH ([1]; Peptide 1 5 µg at 30 and 90 min, time 90 min (time of second dose)): 2.4 ng/mL
SGH ([1]; Peptide 1 5 µg at 30 and 90 min, time 95 min): 3.1 ng/mL
SGH ([1]; Peptide 1 5 µg at 30 and 90 min, time 100 min): 1.7 ng/mL
SGH ([1]; Peptide 1 5 µg at 30 and 90 min, time 105 min): 1.7 ng/mL
SGH ([1]; Peptide 1 5 µg at 30 and 90 min, time 135 min): 1.1 ng/mL
SGH ([1]; Peptide 1 25 µg at 30 and 90 min, time 0 min (before dosing)): 19.2 ng/mL
SGH ([1]; Peptide 1 25 µg at 30 and 90 min, time 15 min (before dosing)): 17.3 ng/mL
SGH ([1]; Peptide 1 25 µg at 30 and 90 min, time 30 min (time of first dose)): 16.6 ng/mL
SGH ([1]; Peptide 1 25 µg at 30 and 90 min, time 35 min): 18.4 ng/mL
SGH ([1]; Peptide 1 25 µg at 30 and 90 min, time 40 min): 17.5 ng/mL
SGH ([1]; Peptide 1 25 µg at 30 and 90 min, time 45 min): 14.0 ng/mL
SGH ([1]; Peptide 1 25 µg at 30 and 90 min, time 60 min (time of BIM dose)): 13.1 ng/mL
SGH ([1]; Peptide 1 25 µg at 30 and 90 min, time 75 min): 6.8 ng/mL
SGH ([1]; Peptide 1 25 µg at 30 and 90 min, time 90 min (time of second dose)): 5.1 ng/mL
SGH ([1]; Peptide 1 25 µg at 30 and 90 min, time 95 min): 11.4 ng/mL
SGH ([1]; Peptide 1 25 µg at 30 and 90 min, time 100 min): 10.5 ng/mL
SGH ([1]; Peptide 1 25 µg at 30 and 90 min, time 105 min): 7.9 ng/mL
SGH ([1]; Peptide 1 25 µg at 30 and 90 min, time 135 min): 5.2 ng/mL
SGH ([1]; Peptide 1 50 µg at 30 and 90 min, time 0 min (before dosing)): 22.7 ng/mL
SGH ([1]; Peptide 1 50 µg at 30 and 90 min, time 15 min (before dosing)): 17.0 ng/mL
SGH ([1]; Peptide 1 50 µg at 30 and 90 min, time 30 min (time of first dose)): 19.7 ng/mL
SGH ([1]; Peptide 1 50 µg at 30 and 90 min, time 35 min): 50.2 ng/mL
SGH ([1]; Peptide 1 50 µg at 30 and 90 min, time 40 min): 23.4 ng/mL
SGH ([1]; Peptide 1 50 µg at 30 and 90 min, time 45 min): 15.5 ng/mL
SGH ([1]; Peptide 1 50 µg at 30 and 90 min, time 60 min (time of BIM dose)): 17.1 ng/mL
SGH ([1]; Peptide 1 50 µg at 30 and 90 min, time 75 min): 3.5 ng/mL
SGH ([1]; Peptide 1 50 µg at 30 and 90 min, time 90 min (time of second dose)): 1.9 ng/mL
SGH ([1]; Peptide 1 50 µg at 30 and 90 min, time 95 min): 67.3 ng/mL
SGH ([1]; Peptide 1 50 µg at 30 and 90 min, time 100 min): 31.8 ng/mL
SGH ([1]; Peptide 1 50 µg at 30 and 90 min, time 105 min): 10.5 ng/mL
SGH ([1]; Peptide 1 50 µg at 30 and 90 min, time 135 min): 2.6 ng/mL
serum GH levels after second dose ([1]; second dose of peptide 1, highest dose (50 µg), after BIM 23014C): even greater increase in serum GH levels
cAMP (SSTR2; Forskolin 1.25 µM + MK 678 10 nM + Peptide 1 1 µM (forskolin + MK 678 alone 0.91)): 1.14 pM per 4 x 10^4 cells
cAMP (SSTR2; Forskolin 1.25 µM + MK 678 10 nM + Peptide 1 10 µM (forskolin + MK 678 alone 0.91)): 2.69 pM per 4 x 10^4 cells
cAMP (SSTR2; Forskolin 1.25 µM + MK 678 10 nM + Peptide 1 50 µM (forskolin + MK 678 alone 0.91)): 3.32 pM per 4 x 10^4 cells
cAMP (SSTR2; Forskolin 1.25 µM, no MK 678, Peptide 1 1 µM (forskolin alone 3.04; baseline 0.36)): 2.57 pM per 4 x 10^4 cells
cAMP (SSTR2; Forskolin 1.25 µM, no MK 678, Peptide 1 10 µM (forskolin alone 3.04; baseline 0.36)): 3.05 pM per 4 x 10^4 cells
cAMP (SSTR2; Forskolin 1.25 µM, no MK 678, Peptide 1 50 µM (forskolin alone 3.04; baseline 0.36)): 3.33 pM per 4 x 10^4 cells
Emax at 2 µM (SSTR2; GH4-C1, test peptide 2 µM, percent reversal of SSTR2 activation by SRIF or MK678, 0% = forskolin plus agonist, 100% = forskolin alone, read-out: cAMP Assay Intrinsic activity): 85.2%
forskolin-stimulated cAMP levels in the absence of SRIF (inverse agonist activity) (SSTR2; GH4C1/SSTR2 cells, no added SRIF, Figure 1 (Table II) and Figure 2 (Table IV)): causes an increase in forskolin-stimulated cAMP levels even in the absence of SRIF
parallelism of the dose response curves of S-14 or MK678 with and without peptide 1 (SSTR2; forskolin stimulated cells, increasing doses of S-14 or MK678, Figure 2 (Table IV)): directly competing with the SRIF agonists
SGH (Male Sprague-Dawley rats; time 35 min): 195.8 ng/mL
SGH (Male Sprague-Dawley rats; time 40 min): 176.2 ng/mL
SGH (Male Sprague-Dawley rats; time 45 min): 40.5 ng/mL
GH levels (Male Sprague-Dawley rats; GRF (1 µg) in combination with peptide 1 (50 µg), compared with GRF alone): rise faster and higher than with GRF alone
Yeast Assay (mm) (SRIF receptors; Table III, diameter of zone of growth inhibition): 20 mm
Inhibition Zone (mm) (SRIF receptors; sample type 4th iteration, read after 3 days, compare only within same experiment): 18 mm
growth hormone secretory pulses upon withdrawal ([2]; conscious male rats, after end of the two hour infusion of 300 µg/hr): the pulses resume synchronously, and gradually desynchronize with time
spontaneous growth hormone secretory pulses during infusion ([2]; conscious, freely moving male rats, 300 µg/hr intravenously for two hours from 6 hour time point): abolition of these pulses
